Results on one compound are retold here after article PMC4232042 (Drug Design, Development and Therapy, 2014).

For the experiment, the target named is Kv1.5 (Homo sapiens, UniProt P22460). In words: whole-cell patch clamp in HEK […] cells stably expressing Kv1.[…]. Format: cell-based. A general note: The patch-clamp technique gives a direct electrical read-out from membranes.
Chain of Kv1.5 (P22460 whole entry): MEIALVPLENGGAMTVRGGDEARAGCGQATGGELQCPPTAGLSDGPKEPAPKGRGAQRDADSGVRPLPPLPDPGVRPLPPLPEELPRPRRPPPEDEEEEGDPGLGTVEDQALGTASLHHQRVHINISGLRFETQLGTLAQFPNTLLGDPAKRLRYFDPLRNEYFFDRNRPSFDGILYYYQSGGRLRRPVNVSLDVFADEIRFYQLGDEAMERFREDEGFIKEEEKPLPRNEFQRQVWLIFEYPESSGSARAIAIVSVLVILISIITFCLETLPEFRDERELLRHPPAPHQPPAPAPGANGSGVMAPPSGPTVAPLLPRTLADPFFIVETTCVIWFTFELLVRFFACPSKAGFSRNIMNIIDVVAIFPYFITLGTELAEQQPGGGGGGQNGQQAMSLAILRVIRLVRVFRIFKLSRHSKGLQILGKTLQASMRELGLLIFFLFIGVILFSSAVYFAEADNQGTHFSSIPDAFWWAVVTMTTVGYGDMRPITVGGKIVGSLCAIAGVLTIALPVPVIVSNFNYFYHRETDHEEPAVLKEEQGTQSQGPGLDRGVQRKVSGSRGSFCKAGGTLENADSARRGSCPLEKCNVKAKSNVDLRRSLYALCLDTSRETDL

As usually defined, the IC50 is the concentration that gives 50% inhibition. Read a low IC50 as inhibition by little substance. On to `Cc1ncc2n1-c1ccc(Cl)cc1C(c1ccccc1F)=NC2` [midazolam], for which the midpoint of inhibition, the IC50, lay at 17 ± 4.2 µM.
